According to PubChem BioAssay (NCI):
Where “and” joins values, the source holds several entries; their conditions need not be identical. Equal entries are not always repeated.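 96-well plates; 48 h exposure; 5 concentrations. Endpoints by linear interpolation between flanking doses. Not reached: highest tested concentration assigned. Here, GI50 denotes the concentration required for 50% inhibition of growth. At the TGI there is no net growth.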

Legend:
Test in all cases: NCI anticancer screen, dose series, 48 h
COLO 205 colon = system: COLO 205 colon
UACC-62 melanoma = system: UACC-62 melanoma
SF-295 CNS = system: SF-295 CNS
SW-620 colon = system: SW-620 colon
SK-MEL-5 melanoma = system: SK-MEL-5 melanoma
OVCAR-8 ovarian = system: OVCAR-8 ovarian
SNB-75 CNS = system: SNB-75 CNS
SK-MEL-28 melanoma = system: SK-MEL-28 melanoma
HOP-92 NSCLC = system: HOP-92 NSCLC
A498 renal = system: A498 renal

| Structure (SMILES) | TGI (COLO 205 colon) [µM] | TGI (UACC-62 melanoma) | TGI (SF-295 CNS) [µM] | TGI (SW-620 colon) [µM] | TGI (SK-MEL-5 melanoma) | TGI (OVCAR-8 ovarian) [µM] | TGI (SNB-75 CNS) [µM] | TGI (SK-MEL-28 melanoma) [µM] | TGI (HOP-92 NSCLC) [µM] | TGI (A498 renal) [µM] | GI50 (COLO 205 colon) | GI50 (UACC-62 melanoma) [µM] | GI50 (SF-295 CNS) [µM] | GI50 (SW-620 colon) [µM] | GI50 (SK-MEL-5 melanoma) | GI50 (OVCAR-8 ovarian) [µM] | GI50 (A498 renal) [µM] | GI50 (SNB-75 CNS) [µM] | GI50 (SK-MEL-28 melanoma) [µM] | GI50 (HOP-92 NSCLC) [µM] |
| --- | --- | --- | --- | --- | --- | --- | --- | --- | --- | --- | --- | --- | --- | --- | --- | --- | --- | --- | --- | --- |
| CNc1nc(N)c(N=O)c(Nc2ccc(Br)cc2)n1 | > 100 | > 100 µM | > 100 | > 100 | > 100 µM | > 100 | > 100 | > 100 | – | – | – | – | – | – | – | – | – | – | – | – |
| CCCCOC(=O)NC(=O)c1cn(C2CCCCC2)c(=O)[nH]c1=O | > 100 | > 100 µM | > 100 | > 100 | – | > 100 | – | > 100 | 55.1 | 49 | – | – | – | – | – | – | – | – | – | – |
| CC(C)c1cc2c(O)c(c1)Cc1cc(C(C)C)cc(c1O)Cc1cc(C(C)C)cc(c1O)Cc1cc(C(C)C)cc(c1O)C2 | > 100 | > 100 µM | > 100 | > 100 | > 100 µM | > 100 | > 100 | – | > 100 | > 100 | – | – | – | – | – | – | – | – | – | – |
| COC(=O)C(=Cc1cc(OC)c(OC)c(OC)c1-c1cc2c(cc1C(C)=O)OCO2)C(=O)OC | 66.8 | 73.8 µM | 102 | 102 | 70.1 µM | > 211 | – | 78.1 | 124 | – | – | – | – | – | – | – | – | – | – | – |
| COC(=O)c1cc(C)c(C)c2c1NC(=O)CNC2=O | > 100 | > 100 µM | > 100 | > 100 | – | > 100 | > 100 | > 100 | – | > 100 | – | – | – | – | – | – | – | – | – | – |
| NCCCn1c2c(c3ccc([N+](=O)[O-])cc3c1=O)C(=O)c1cc(Br)ccc1-2 | 2.34 | 0.0488 µM and 0.0256 µM | – | 0.132 | 0.15 µM and 0.251 µM | 0.188 | 0.0298 | – | – | 0.0628 | 0.0946 µM and 0.79 µM | 0.0195 | 0.163 | 0.00106 | 0.0265 µM and 0.0338 µM | 0.0271 | 0.00231 | 0.00281 | 0.0715 | – |
| C=C[C@H]1C[C@@H]2C[C@@H]3[C@H]4C/C=C\C(=O)NCCCC5NC(=O)C(=C(O)/C=C/[C@@H]4CC(=O)[C@H]3[C@@H]2[C@H]1C)C5=O (some centres not stated) | 3.21 | 2.88 µM | – | 3.13 | 0.309 µM | 0.38 | 0.289 | 0.399 | 0.539 | 0.369 | 1.78 µM | 1.45 | – | 1.66 | 0.161 µM | 0.193 | 0.175 | 0.15 | 0.203 | 0.218 |
| C=C(C)C1CCC2(C(=O)O)CCC3(C)C(CCC4C5(C)CCC(OC(=O)NCc6ccccc6)C(C)(C)C5CCC43C)C12 (configuration not stated) | 5.44 | > 100 µM | > 100 | > 100 | > 100 µM | > 100 | > 100 | > 100 | – | > 100 | 1.82 µM | 1.9 | 3.15 | 2.56 | 4.82 µM | 7.29 | 2.57 | 98.4 | 1.08 | – |
| O=C(O)[C@@H]1CCCCN1Cc1cc2cc3c(cc2c2cc(OCc4ccccc4)ccc12)OCO3 | 15.8 | 3.08 µM | 8.3 | 13.8 | 3.61 µM | 29 | 8.91 | 7.28 | 41.5 | – | 3.05 µM | 1.49 | 1.95 | 1.84 | 1.62 µM | 6.62 | – | 2.96 | 2.21 | 14.7 |
| COc1ccc2nc3cc(Cl)ccc3c(NCCN)c2c1 | 3.14 | – | – | 3.25 | – | – | – | – | 2.95 | 23.9 | 1.53 µM | – | – | 1.45 | – | – | 11.7 | – | – | 1.47 |
| COc1cccc(N2C(=O)[C@H]3CC(C)c4c([nH]c5ccccc45)[C@H]3C2=O)c1 (some centres not stated) | > 100 | > 100 µM | 67.6 | – | > 100 µM | > 100 | 42.1 | > 100 | 80.5 | > 100 | – | – | – | – | – | – | – | – | – | – |
| COC(=O)C(=O)C(C(=O)C=C(C)C)C(=O)C(=O)Nc1ccc(C)cc1C (configuration not stated) | > 100 | > 100 µM | > 100 | > 100 | > 100 µM | > 100 | > 100 | > 100 | – | > 100 | – | – | – | – | – | – | – | – | – | – |
| CC(C)CCCC(=O)CCCCCCC(=O)CCN(O)C(=O)C(N)CO (configuration not stated) | 53.5 | 34.6 µM | 36.3 | > 100 | 43.7 µM | 39.3 | 31.1 | 41.5 | – | 31.8 | – | – | – | – | – | – | – | – | – | – |
| CC1(C)N=C(N)N=C(N)N1c1ccc(OCc2ccc(S(=O)(=O)F)c(Cl)c2)c(Cl)c1 | > 100 | > 100 µM | > 100 | > 100 | > 100 µM | > 100 | > 100 | > 100 | – | > 100 | 5.74 µM | 0.74 | 3.88 | 0.424 | 1.03 µM | 0.735 | > 100 | 4.92 | 8.61 | – |
| Cn1c2ccccc2c2c3[nH]c(=O)[nH]c(=O)c3c3c4ccccc4n(C)c3c21 | > 100 | > 100 µM | 27.8 | > 100 | – | 14.1 | 3.27 | > 100 | 14.6 | 4.37 | 2.44 µM | 6.64 | 10.5 | 2.67 | – | 2.94 | 0.0475 | 1.49 | 4.5 | 3.4 |
| COC(C(O)c1ccc2c(c1)OCO2)P(=O)(c1ccccc1)c1ccccc1 (configuration not stated) | – | > 100 µM | – | > 100 | > 100 µM | > 100 | > 100 | > 100 | > 100 | > 100 | – | – | – | – | – | – | – | – | – | – |
| COC(=O)C12C3C4C1C1C2C3C41NC(=O)c1csc([C@@H](C[C@H](C(C)C)N(C)C(=O)[C@@H](NC(=O)[C@H]2CCCCN2C)C2CC2)OC(C)=O)n1 (some centres not stated) | 0.379 | > 33.3 µM | > 33.3 | > 33.3 | 0.526 µM | > 33.3 | > 33.3 | > 33.3 | – | > 10.6 | 0.00727 µM | 0.00595 | 0.0476 | 0.00746 | 0.00977 µM | 0.0404 | 0.116 | 0.00595 | – | – |
